Data set [1] is described as follows: Partition coefficient based on the octanol extraction method (logPoctanol). The note with it: octanol / 10 mmol/L phosphate buffer (pH 7.4), radioactivity count. The method, then: 10 μL each of the prepared sample solution was respectively added to 2 mL of octanol, further, 2 mL of 10 mmol/L phosphate buffer (pH 7.4) was added, and stirred for 30 seconds. […] Using the obtained radioactivity count, log Poctanol was calculated in accordance with the equation (2).

Data set [2] addresses T1, amyloid (aggregated Aβ1-40) (Homo sapiens, UniProt P05067).
T1 construct: Aβ1-40 (Peptide Institute) was dissolved in phosphate buffer (pH 7.4); purchased Peptide Institute
The experiment in a line: Measurement of amyloid affinity: in vitro binding test, inhibition of [125I]3′-I-BTA-0 binding. As for the experimental part: Affinity of the present compounds with amyloid was examined by the following in vitro binding tests.
(1) Aβ1-40 (Peptide Institute) was dissolved in phosphate buffer (pH 7.4) and shaken at 37° C. for 62-72 hours, to obtain a suspension of aggregated Aβ (concentration: 1 mg/mL equivalent, hereinafter referred to as amyloid suspension in these Examples).
(3) According to the method described in a literature (Wang, Y., et al., J. Labeled Compounds Radiopharmaceut. 44, 5239 (2001)), [^125I]2-(3′-iodo-4′-aminophenyl)benzothiazole (hereinafter referred to as [^125I]3′-I-BTA-0) was prepared from a labeling precursor 2-(4′-aminophenyl)benzothiazole, and dissolved in ethanol. [^125I]sodium iodide of 12-71 MBq (10-30 μL in volume) was used for the production, to obtain [^125I]3′-I-BTA-0 of 1-22 MBq immediately after the synthesis.
(5) Samples in which [^125I]3′-I-BTA-0, each compound for evaluation and amyloid were dissolved in a 0.1% bovine serum albumin-containing phosphate buffer (pH 7.4) at final concentrations shown in Table 2 were prepared. The resulting samples were placed in each well (about 0.3 mL in volume) of a 96-well microplate.
(6) The microplate filled with the sample solutions was shaken at a given rate (400 rpm) at 22° C. for 3 hours. Then, each sample solution was filtered through a glass fiber filter (trade name: Mulutiscreen™-FC, manufactured by Millipore), to separate the [^125I3′-I-BTA-0 attached to amyloid from the [^125I]3′-I-BTA-0 free from amyloid.
(7) The glass fiber filter used for the filtration of each sample solution was washed with a 0.1% bovine serum albumin-containing phosphate buffer (pH 7.4) (0.5 mL×5), and radioactivity of the glass fiber filter was measured with an autowell gamma system (manufactured by Aloka, Type: ARC-301B).
(8) Separately, a solution containing 15 μmol/L of 6-Me-BTA-2, 400 pmol/L of [^125I]3′-I-BTA-0 and 1 μmol/L of Aβ1-40 in a 0.1% bovine serum albumin-containing phosphate buffer (pH 7.4) was prepared and subjected to the same procedures as described above in (6) and (7) to measure a radioactivity level. The measured radioactivity level was defined as the background radioactivity level, and used in the calculation of the inhibition ratio (hereinafter referred to as BG).
(9) Using the radioactivity levels measured above in (7) and (8), the inhibition ratio was determined by the following formula (1).
A graph in which values converted by probit transformation from the obtained inhibition ratios were plotted relative to logarithms of concentrations of compounds for evaluation was prepared to obtain an approximate straight line by the least square method. Using the line, the concentration of each compound for evaluation was determined, at which the radioactivity level is half of the level of the sample free from each compound for evaluation, and was defined as a 50% inhibition concentration of each compound (hereinafter referred to as IC50% value). Using the value as an indicator, affinity of each compound for evaluation with amyloid (aggregated Aβ1-40) was evaluated.

Data set [3] deals with Salmonella typhimurium TA98. The experiment in a line: Reverse mutation test (Ames test), TA98. The data set is classed as cell-based. The note with it: maximum 5000 μg/plate. As for the experimental part: (§1) In order to examine gene mutagenicity of Compounds 1, 2 and 4, reverse mutation test using Salmonella typhimurium TA98 and TA100 (hereinafter referred to as Ames test) was conducted.
(§2) The test was conducted without addition of S9mix and with addition of S9mix. Dimethylsulfoxide was used as a negative control. A positive control was 2-(2-furyl)-3-(5-nitro-2-furyl)acrylamide in case S9mix was not added, and 2-aminoanthracene in case S9 mix was added.
(§3) The amount of each sample to be added to the test plate was 7 dosages (geometric ratio 4) with the maximum dose being 5000 μg/plate. After a sample to be examined and a strain (TA98 or TA100), or a sample to be examined, S9mix and the strain were mixed together, the mixture was multilayered using soft agar on a medium of a test plate, and then incubated at 37° C. for 48 hours.
(§4) In order to examine gene mutagenicity of Compound 8, reverse mutation test using Salmonella typhimurium TA98 and TA100 (hereinafter referred to as Ames test) was conducted.
(§5) The test was conducted without addition of S9mix and with addition of S9mix. Dimethylsulfoxide was used as a negative control. A positive control was 2-(2-furyl)-3-(5-nitro-2-furyl)acrylamide in case S9mix was not added, and 2-aminoanthracene in case S9mix was added.
(§6) The amount of Compound 8 to be added to the test plate was 7 dosages (geometric ratio 3) with the maximum dose being 5000 μg/plate. After Compound 8 and a strain (TA98 or TA100), or Compound 8, S9mix and the strain were mixed together, the mixture was multilayered using soft agar on a medium of a test plate, and then incubated at 37° C. for 48 hours.

For data set [4], the system named is Salmonella typhimurium TA100. The experiment in a line: Reverse mutation test (Ames test), TA100. The note with it: maximum 5000 μg/plate. Type of data set: cell-based. As for the experimental part: as §1, §2, §3, §4, §5, §6
Data set [5] has as its system Salmonella typhimurium TA98 and TA100. The experiment in a line: Reverse mutation test (Ames test), overall judgment. The data set is classed as cell-based. The conditions noted are these: TA98 and TA100, with and without S9mix. As for the experimental part: as §1, §2, §3, §4, §5, §6
A general note: In the Ames test, an excess of revertant colonies over the control signals mutagenicity.

Data set [6] has as its target T2, amyloid (amylin) (Homo sapiens, UniProt P10997).
T2 construct: Amylin (human) (manufactured by Wako) was dissolved in phosphate buffer (pH 7.4); purchased Wako
T2 sequence (P10997 34-70 limits assumed): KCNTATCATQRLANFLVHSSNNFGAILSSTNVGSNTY
Put plainly: Inhibition of binding of Thioflavin T to amyloid derived from amylin. The note with it: Thioflavin T 5 μmol/L, amyloid 2.6 μmol/L. As for the experimental part: Amylin is an amyloid accumulating in pancreas of type II diabetes.
(3) The amyloid suspension was dissolved in 50 mM phosphate buffer (pH 7.4) at a concentration of amylin of 15 μM.
(4) Samples in which each compound for evaluation and amyloid were dissolved in a 50 mM phosphate buffer (pH 7.4) at final concentrations shown in Table 9 were prepared.
(5) A sample in which 100 μL of 50 mM phosphate buffer (pH 7.4) and 50 μL of 50 mM glycin-NaOH buffer (pH 8.5) were mixed was made as a blank, and subjected to the same procedure as in (4) and used for a calculation of inhibition ratio (hereinafter referred to as BG).
(6) The microplate filled with the sample solutions was left to stand at room temperature for 30 hours. Then, fluorescence strength of each sample solution was measured (measurement conditions: excitation wavelength of 446nm, emission wavelength of 490 nm) with microplate reader (type: SPECTRA MAX GEMINI XS, manufactured by Molecular Devices) (hereinafter, A denotes the fluorescence strength in a sample with zero (0) concentration of each compound for evaluation, and B denotes the fluorescence strength in a sample with 1.5 μmol/L or higher concentration of each compound for evaluation).
(7) Using the fluorescence strength measured above in (6), the following formula (5): […]
was used to determine the inhibition ratio.

A short description of data set [7]: Transferability into brain and clearance (Example I-16, Comparative Example I-7). The data set is classed as in vivo, male Wistar rats. The conditions noted are these: rats, intravenous injection, two animals. The method, then: Using Compound 6, a time course change of radioactive accumulation in brain of male Wistar rats (7-week old) was measured.
Also, radioactivity (hereinafter referred to as B in this Example) of 0.05 mL of a 1000-fold diluted solution of the injected solution was measured in the same manner as above. Using these measurement results, radioactive accumulation per unit weight of brain (% ID/g) at the respective time points was calculated in accordance with the following formula (3).

The nature of data set [8]: Transferability into brain and clearance (Examples II-11, II-12, Comparative Example II-1). The conditions noted are these: rats, intravenous injection, three animals. As for the experimental part: Using the Compounds 10 and 11, a time course change of radioactive accumulation in brain of male Wistar rats (7-week old) was measured.
The rats were sacrificed by bleeding from abdominal artery, and brains were removed and subjected to measurement of mass of brains and further subjected to measurement of radioactivity (hereinafter referred to as A in this Example) with a single channel analyzer (detector type: SP-20 manufactured by OHYO KOKEN KOGYO Co., Ltd.) 2, 5, 30 and 60 minutes after the injection. Also, radioactivity (hereinafter referred to as B in this Example) of the rest of the whole body was measured in the same manner as above. Using these measurement results, radioactive accumulation per unit weight of brain (% ID/g) at the respective time points were calculated in accordance with the following formula (4).
Three animals were used for experiment at the respective time points.

The mark [9] stands for this setting: Table 6, 7 dosages (geometric ratio 4).
The mark [10] stands for this setting: up to 5000 μg/plate (geometric ratio 4).
[11] abbreviates: Table 8, 7 dosages (geometric ratio 3).

pIC50: −log10 of the molar value.

T1 sequence (P05067 672-711 limits assumed): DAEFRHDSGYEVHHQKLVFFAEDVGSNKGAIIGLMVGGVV

Regarding `CN(C)c1ccc(-c2cn3cc([125I])ccc3n2)cc1` [[^125I]-IMPY, reference compound], in data set [1], the logPoctanol value is recorded as 2.1.
As a reminder, the pIC50 is the negative decadic logarithm of the IC50, by convention in mol/L. Higher therefore signals a small IC50. The compound `Oc1ccc(-c2cn3cc(Br)ccc3n2)cc1` [Compound 1, 6-bromo-2-(4′-hydroxyphenyl)imidazo[1,2-a]pyridine] gave a pIC50 in data set [2] of 8.36. In data set [3] (setting [9]), the “Mutagenicity, TA98, with addition of S9mix” value is reported as “Negative” and the “Mutagenicity, TA98, without addition of S9mix” value is listed as “Negative”. For the same compound, in data set [4] (setting [9]), the “Mutagenicity, TA100, with addition of S9mix” value is recorded as “Negative” and the “Mutagenicity, TA100, without addition of S9mix” value was “Negative”. Further, in data set [5] (setting [10]), the “Judgment in the Ames test (gene mutagenicity)” value (“Judgment in the Ames test” below) was “negative”. For the same compound, the “Inhibition ratio (%) of binding of amyloid (amylin) to Thioflavin T” value (“Inhibition ratio (%)” for short) in data set [6] (compound 1.5 μmol/L) is reported as 8.7%. Also, the “Inhibition ratio (%)” value in data set [6] (compound 15 μmol/L) is on record as 41.3%. Further, the “Inhibition ratio (%)” value in data set [6] (compound 30 μmol/L) is recorded as 27.0%.
For `Nc1ccc(-c2nc3ccccc3s2)cc1I` [3′-I-BTA-0, 2-(3′-Iodo-4′-aminophenyl)benzothiazole, reference compound], the pIC50 in data set [2] was 8.00.
In data set [2], `Oc1ccc(-c2cn3cc(OCCCF)ccc3n2)cc1` [Compound 3, 6-(3′-fluoropropoxy)-2-(4′-hydroxyphenyl)imidazo[1,2-a]pyridine] had a pIC50 of 7.26.
As for `Oc1ccc(-c2cn3cc([123I])cnc3n2)cc1` [Compound 9, [^123I]-2-(4′-hydroxyphenyl)-6-iodoimidazo[1,2-a]pyrimidine], in data set [1], the logPoctanol value is reported as 1.7.
For `Nc1c(/N=N/c2ccc(-c3ccc(/N=N/c4cc(S(=O)(=O)O)c5ccccc5c4N)cc3)cc2)cc(S(=O)(=O)O)c2ccccc12` [Congo-Red, reference compound], the pIC50 in data set [2] is less than 6.00.
For `CN(C)c1ccc(-c2cn3cc([123I])ccc3n2)cc1` [^123I-IMPY, reference compound], the “Radioactive accumulation in brain per unit weight” value turned out to be 1.02 % ID/g in data set [7] (after 2 min.); 0.99 % ID/g in data set [7] (after 5 min.); 0.20 % ID/g in data set [7] (after 30 min.); 0.08 % ID/g in data set [7] (after 60 min.); 1.19 % ID/g in data set [8] (after 2 min.); 0.97 % ID/g in data set [8] (after 5 min.). Moreover, the “Radioactive accumulation in brain per unit weight” value in data set [8] (after 30 min.) was 0.23 % ID/g; in data set [8] (after 60 min.) it was 0.09 % ID/g.
Regarding `Oc1ccc(-c2cn3cc(I)cnc3n2)cc1` [Compound 4, 2-(4′-hydroxyphenyl)-6-iodoimidazo[1,2-a]pyrimidine], in data set [2], the pIC50 was 7.27. Further, in data set [3] (setting [9]), the “Mutagenicity, TA98, with addition of S9mix” value was “Negative” and the “Mutagenicity, TA98, without addition of S9mix” value is “Negative”. In addition, in data set [4] (setting [9]), the “Mutagenicity, TA100, with addition of S9mix” value is “Negative” and the “Mutagenicity, TA100, without addition of S9mix” value is “Negative”. Moreover, the “Judgment in the Ames test” value in data set [5] (setting [10]) is listed as “negative”.
Consider `Cc1ccc2nc(-c3ccc(N(C)C)cc3)sc2c1` [Compound 6-Me-BTA-2, 6-methyl-2-[4′-(N,N-dimethylamino)phenyl]benzothiazole, reference compound], for which the pIC50 in data set [2] was 7.60.
Turning to `Oc1ccc(-c2cn3cc([125I])ccc3n2)cc1` [Compound 5, [^125I]-2-(4′-hydroxyphenyl)-6-iodoimidazo[1,2-a]pyridine], the logPoctanol value in data set [1] stood at 1.6.
Take `Oc1ccc(-c2cn3cc(I)ncc3n2)cc1` [Compound 8, 2-(4′-hydroxyphenyl)-6-iodoimidazo[1,2-a]pyrazine]: in data set [3] (setting [11]), the “Mutagenicity, TA98, with addition of S9mix” value is given as “Negative” and the “Mutagenicity, TA98, without addition of S9mix” value is “Negative”. In addition, in data set [4] (setting [11]), the “Mutagenicity, TA100, with addition of S9mix” value is “Negative” and the “Mutagenicity, TA100, without addition of S9mix” value was “Negative”. In addition, the “Judgment in the Ames test” value in data set [5] (up to 5000 μg/plate (geometric ratio 3)) is “negative”.

Source of the values: patent US20100249408A1, “USE OF NOVEL COMPOUND HAVING AFFINITY FOR AMYLOID, AND PROCESS FOR PRODUCTION OF THE SAME” (NIHON MEDI-PHYSICS CO., LTD., priority 2007, published 2010).
